Data published in patent publication US10519177B2, “Heterocyclic compounds and uses thereof” (Plexxikon Inc., priority 2013, dated 2019).

Columns and labels:
[1] = tested on: bromodomain; assay: at least one of the bromodomain cell assays of Example 57; type: cell-based; conditions: at least one of the bromodomain cell assays described in Example 57; read-out: IC50 in at least one of the bromodomain cell assays
[2] = tested on: MV-4-11 cells; assay: Oncology cell growth assay MV-4-11 (CellTiter Glo); type: cell-based; conditions: Homo sapiens, MV4-11, 72 h; MV-4-11, 3d growth; read-out: Cell activity (IC50 μM) MV-4-11 3d-Growth
Outline: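 MV-4-11 AML cells (MLL-AF4), 3000 per well, exposed to 8-point 1:3 compound titration from 10 μM top concentration (0.2% DMSO) for 72 h. Viability by CellTiter Glo luminescence, normalized to DMSO controls; pIC50 from four-parameter curve fit.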

[3] = biological target: BRD4-BD12 (1-477) (Homo sapiens (Human), UniProt O60885); assay: Alphascreen binding assay BRD4-BD12; conditions: BRD4(1 2) H4; read-out: Biochemical activity (IC50 μM) BRD4(1 2) H4
Outline: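 First, compound was preincubated 1 h at room temperature with the His-tagged BRD4 protein (BD1 44-164 or tandem BD12 1-477) and acetylated H4 peptide. Next, donor and acceptor beads were added at 7.5 μg/ml final. After 30 min, AlphaScreen emission was recorded.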

Structure (SMILES) | IC50 [1] | IC50 [2] | IC50 [3]
Cc1noc(C)c1-c1cnc2c(-c3cnc(N)cn3)cn(CC3(F)CCCCC3)c2c1 [P-0472, 5-[6-(3,5-dimethylisoxazol-4-yl)-1-[(1-fluorocyclohexyl)methyl]pyrrolo[3,2-b]pyridin-3-yl]pyrazin-2-amine] | < 10000 nM | < 1 µM | < 1 µM
Cc1noc(C)c1-c1cnc2c(-c3cnc(N)nc3)cn(CC3(F)CCCCC3)c2c1 [P-0473, 5-[6-(3,5-dimethylisoxazol-4-yl)-1-[(1-fluorocyclohexyl)methyl]pyrrolo[3,2-b]pyridin-3-yl]pyrimidin-2-amine] | < 10000 nM | < 1 µM | < 1 µM
Cc1noc(C)c1-c1cnc2c(-c3cnc(C4CC4)nc3)cn(CC3(F)CCCCC3)c2c1 [P-0474, 4-[3-(2-cyclopropylpyrimidin-5-yl)-1-[(1-fluorocyclohexyl)methyl]pyrrolo[3,2-b]pyridin-6-yl]-3,5-dimethyl-isoxazole] | < 10000 nM | < 1 µM | < 1 µM
Cc1noc(C)c1-c1cnc2c(-c3cccc(S(N)(=O)=O)c3)cn(CC3(F)CCCCC3)c2c1 [P-0475, 3-[6-(3,5-dimethylisoxazol-4-yl)-1-[(1-fluorocyclohexyl)methyl]pyrrolo[3,2-b]pyridin-3-yl]benzenesulfonamide] | < 10000 nM | < 1 µM | < 1 µM
Cc1noc(C)c1-c1cnc2c(-c3ccc(C(=O)O)c(F)c3F)cn(CC3(F)CCCCC3)c2c1 [P-0476, 4-[6-(3,5-dimethylisoxazol-4-yl)-1-[(1-fluorocyclohexyl)methyl]pyrrolo[3,2-b]pyridin-3-yl]-2,3-difluoro-benzoic acid] | < 10000 nM | < 1 µM | < 1 µM
Cc1noc(C)c1-c1cnc2c(-c3csc(C(=O)O)c3)cn(CC3(F)CCCCC3)c2c1 [P-0477, 4-[6-(3,5-dimethylisoxazol-4-yl)-1-[(1-fluorocyclohexyl)methyl]pyrrolo[3,2-b]pyridin-3-yl]thiophene-2-carboxylic acid] | < 10000 nM | 1 to 10 µM | < 1 µM
Cc1noc(C)c1-c1cnc2c(-c3ccc(C(=O)O)s3)cn(CC3(F)CCCCC3)c2c1 [P-0478, 5-[6-(3,5-dimethylisoxazol-4-yl)-1-[(1-fluorocyclohexyl)methyl]pyrrolo[3,2-b]pyridin-3-yl]thiophene-2-carboxylic acid] | < 10000 nM | < 1 µM | < 1 µM
Cc1nnn(C)c1-c1cnc2c(-c3ccc(S(N)(=O)=O)cc3)cn(CC3(F)CCCCC3)c2c1 [P-0479, 4-[6-(3,5-dimethyltriazol-4-yl)-1-[(1-fluorocyclohexyl)methyl]pyrrolo[3,2-b]pyridin-3-yl]benzenesulfonamide] | < 10000 nM | < 1 µM | < 1 µM
Cn1cc(-c2cnc3c(-c4ccc(C(=O)O)cc4)cn(CC4CCC(F)(F)CC4)c3c2)ccc1=O [P-0480, 4-[1-[(4,4-difluorocyclohexyl)methyl]-6-(1-methyl-6-oxo-3-pyridyl)pyrrolo[3,2-b]pyridin-3-yl]benzoic acid] | < 10000 nM | 1 to 10 µM | < 1 µM
Cc1cc(-c2cnc3c(-c4cnn(CC(F)(F)F)c4)cn(CC4CCC(F)(F)CC4)c3c2)c[nH]c1=O [P-0481, 5-[1-[(4,4-difluorocyclohexyl)methyl]-3-[1-(2,2,2-trifluoroethyl)pyrazol-4-yl]pyrrolo[3,2-b]pyridin-6-yl]-3-methyl-1H-pyridin-2-one] | < 10000 nM | < 1 µM | < 1 µM
Cc1noc(C)c1-c1cnc2c(-c3cnn(CC(=O)O)c3)cn(CC3CCC(F)(F)CC3)c2c1 [P-0482, 3-[4-[1-[(4,4-difluorocyclohexyl)methyl]-6-(3,5-dimethylisoxazol-4-yl)pyrrolo[3,2-b]pyridin-3-yl]pyrazol-1-yl]acetic acid] | < 10000 nM | 10 to 200 µM | < 1 µM
Cc1cc(-c2cn(CC3CCC(F)(F)CC3)c3cc(-c4c(C)noc4C)cnc23)ccc1C(=O)O [P-0483, 4-[1-[(4,4-difluorocyclohexyl)methyl]-6-(3,5-dimethylisoxazol-4-yl)pyrrolo[3,2-b]pyridin-3-yl]-2-methyl-benzoic acid] | < 10000 nM | < 1 µM | < 1 µM
Cc1noc(C)c1-c1cnc2c(-c3csc(C(=O)O)c3)cn(CC3CCC(F)(F)CC3)c2c1 [P-0484, 4-[1-[(4,4-difluorocyclohexyl)methyl]-6-(3,5-dimethylisoxazol-4-yl)pyrrolo[3,2-b]pyridin-3-yl]thiophene-2-carboxylic acid] | < 10000 nM | < 1 µM | < 1 µM
Cc1noc(C)c1-c1cnc2c(-c3ccc(C(=O)O)s3)cn(CC3CCC(F)(F)CC3)c2c1 [P-0485, 5-[1-[(4,4-difluorocyclohexyl)methyl]-6-(3,5-dimethylisoxazol-4-yl)pyrrolo[3,2-b]pyridin-3-yl]thiophene-2-carboxylic acid] | < 10000 nM | < 1 µM | < 1 µM
Cc1noc(C)c1-c1cnc2c(-c3cc(C(=O)O)cs3)cn(CC3CCC(F)(F)CC3)c2c1 [P-0486, 5-[1-[(4,4-difluorocyclohexyl)methyl]-6-(3,5-dimethylisoxazol-4-yl)pyrrolo[3,2-b]pyridin-3-yl]thiophene-3-carboxylic acid] | < 10000 nM | < 1 µM | < 1 µM
Cc1noc(C)c1-c1cnc2c(-c3ccc(C(=O)O)c(O)c3)cn(CC3CCC(F)(F)CC3)c2c1 [P-0487, 4-[1-[(4,4-difluorocyclohexyl)methyl]-6-(3,5-dimethylisoxazol-4-yl)pyrrolo[3,2-b]pyridin-3-yl]-2-hydroxy-benzoic acid] | < 10000 nM | < 1 µM | < 1 µM
Cc1noc(C)c1-c1cnc2c(-c3cccc(O)c3)cn(CC3(F)CCCCC3)c2c1 [P-0488, 3-[6-(3,5-dimethylisoxazol-4-yl)-1-[(1-fluorocyclohexyl)methyl]pyrrolo[3,2-b]pyridin-3-yl]phenol] | < 10000 nM | < 1 µM | < 1 µM
CNS(=O)(=O)c1cccc(-c2cn(CC3(F)CCCCC3)c3cc(-c4c(C)noc4C)cnc23)c1 [P-0489, 3-[6-(3,5-dimethylisoxazol-4-yl)-1-[(1-fluorocyclohexyl)methyl]pyrrolo[3,2-b]pyridin-3-yl]-N-methyl-benzenesulfonamide] | < 10000 nM | < 1 µM | < 1 µM
Cc1noc(C)c1-c1cnc2c(-c3cccc(S(=O)(=O)NC4CC4)c3)cn(CC3(F)CCCCC3)c2c1 [P-0490, N-cyclopropyl-3-[6-(3,5-dimethylisoxazol-4-yl)-1-[(1-fluorocyclohexyl)methyl]pyrrolo[3,2-b]pyridin-3-yl]benzenesulfonamide] | < 10000 nM | < 1 µM | < 1 µM
Cc1noc(C)c1-c1cnc2c(-c3cccc(S(=O)(=O)NCCO)c3)cn(CC3(F)CCCCC3)c2c1 [P-0491, 3-[6-(3,5-dimethylisoxazol-4-yl)-1-[(1-fluorocyclohexyl)methyl]pyrrolo[3,2-b]pyridin-3-yl]-N-(2-hydroxyethyl)benzenesulfonamide] | < 10000 nM | < 1 µM | < 1 µM
Cc1noc(C)c1-c1cnc2c(-c3cccc(NS(C)(=O)=O)c3)cn(CC3(F)CCCCC3)c2c1 [P-0492, N-[3-0[6-(3,5-dimethylisoxazol-4-yl)-1-[(1-fluorocyclohexyl)methyl]pyrrolo[3,2-b]pyridin-3-yl]phenyl]methanesulfonamide] | < 10000 nM | < 1 µM | < 1 µM
COC(=O)Nc1ccc(-c2cn(CC3(F)CCCCC3)c3cc(-c4c(C)noc4C)cnc23)cc1 [P-0493, methyl N-[4-[6-(3,5-dimethylisoxazol-4-yl)-1-[(1-fluorocyclohexyl)methyl]pyrrolo[3,2-b]pyridin-3-yl]phenyl]carbamate] | < 10000 nM | < 1 µM | < 1 µM
Cc1noc(C)c1-c1cnc2c(-c3ccc(S(=O)(=O)NC4CC4)cc3)cn(CC3(F)CCCCC3)c2c1 [P-0494, N-cyclopropyl-4-[6-(3,5-dimethylisoxazol-4-yl)-1-[(1-fluorocyclohexyl)methyl]pyrrolo[3,2-b]pyridin-3-yl]benzenesulfonamide] | < 10000 nM | < 1 µM | < 1 µM
Cc1noc(C)c1-c1cnc2c(-c3ccc(NS(C)(=O)=O)cc3)cn(CC3(F)CCCCC3)c2c1 [P-0495, N-[4-[6-(3,5-dimethylisoxazol-4-yl)-1-[(1-fluorocyclohexyl)methyl]pyrrolo[3,2-b]pyridin-3-yl]phenyl]methanesulfonamide] | < 10000 nM | < 1 µM | < 1 µM
CC(=O)Nc1ccc(-c2cn(CC3(F)CCCCC3)c3cc(-c4c(C)noc4C)cnc23)cc1 [P-0496, N-[4-[6-(3,5-dimethylisoxazol-4-yl)-1-[(1-fluorocyclohexyl)methyl]pyrrolo[3,2-b]pyridin-3-yl]phenyl]acetamide] | < 10000 nM | < 1 µM | < 1 µM
CONC(=O)c1ccc(-c2cn(CC3(F)CCCCC3)c3cc(-c4c(C)noc4C)cnc23)cc1 [P-0497, 4-[6-(3,5-dimethylisoxazol-4-yl)-1-[(1-fluorocyclohexyl)methyl]pyrrolo[3,2-b]pyridin-3-yl]-N-methoxy-benzamide] | < 10000 nM | < 1 µM | < 1 µM
